Publication PMC9554092, “Self-assembled peptide-paclitaxel nanoparticles for enhancing therapeutic efficacy in colorectal cancer” (Frontiers in Bioengineering and Biotechnology, 2022)

Key:
[1] = Systemic toxicity in the PDX model (body weight, H&E of major organs); format: in vivo; details: PDX mice
Experimental: (§1) The therapeutic efficacy of was evaluated in PDX mice model. When the tumor volume reached about 100 mm3, mice were randomly assigned into four groups (six mice per group) and intravenously administered with DMSO, free PTX, Rev-PTX NPs and LPK-PTX NPs respectively at an equivalent dose of 0.8 mg/kg PTX every 3 days. Total mice body weights and tumor sizes were recorded every 3 days. At the end of the observation, tumors and major organs including heart, liver, spleen, lung, colon and kidney were isolated, […] and subjected to hematoxylin and eosin (H&E) and Ki-67 staining using standard protocols for histopathological analysis.

HCT116 cells = test: Cell apoptosis, Annexin V-Alexa Fluor488/PI flow cytometry; format: cell-based, human; details: HCT116, PTX concentration 5 μg/ml, 48 h, representative result
Experimental: HCT116 cells were seeded in six-well plates at a density of 1 × 10^4 cells per well and incubated at 37°C until a confluence of 80%. The cells were treated with PTX, Rev-PTX NPs, LPK-PTX NPs at normalized PTX concentration of 5 μg/ml at 37°C for 48 h. Then the cells were trypsinzed, washed, and stained with Annexin V-Alexa Fluor488/PI according to manufacturer’s protocol (Life Technologies, United States). The cell apoptosis was monitored by flow cytometry (BD, CA, United States) and the apoptotic percentage of three independent experiments was analyzed.

[2] = system: colorectal cancer patient-derived xenografts (PDX); test: In vivo therapeutic efficacy in CRC patient-derived xenograft (PDX) model; details: CRC PDX mice
Experimental: as §1

CC(=O)O[C@H]1C(=O)[C@@]2(C)[C@H]([C@H](OC(=O)c3ccccc3)[C@]3(O)C[C@H](OC(=O)[C@H](O)[C@@H](NC(=O)c4ccccc4)c4ccccc4)C(C)=C1C3(C)C)[C@]1(OC(C)=O)CO[C@@H]1C[C@@H]2O [PTX, Paclitaxel]
colon histology (HE) [1]: severe crypt destruction | HE-stained sections of colon, lung and liver ([1]; 0.8 mg/kg PTX equivalent i.v. every 3 days): serious damages | early plus late apoptosis (Q3 + Q2) (HCT116 cells): 44.8% | Ki-67 staining of tumor tissue [2]: numerous Ki-67-positive cells
